Results on 4 molecules are retold here after publication PMC6468270, “Recognition of ASF1 by Using Hydrocarbon‐Constrained Peptides” (Chembiochem, 2019).

Several values for one entry are separate records, joined by “and”; a condition that tells them apart may be missing. Identical values can stand only once. Like-named read-outs stand apart in the source and are kept apart here. Starred links: 1 amine or outer side, 2 acyl side, 3 side chain; linkers in the order of their positions; H or OH if unused. Positions of bridges follow the written chain, without caps; N, C: chain ends. Non-standard residues stand in square brackets, D forms with d. Residues, ends and D or L forms follow the SMILES beside them. Nle(6-ylidene) = O=C([C@H](CCCC=[*:3])N[*:1])[*:2]

Data set [1] concerns the target T1, ASF1A(1–156) (Homo sapiens, UniProt Q9Y294).
T1 construct: Recombinant human ASF1 (ASF1A(1-156)) was purified as already described; (His)6-GST-TEV site (N, cleaved yes); made in house; host or cells: E. coli (pETM30 plasmid)
Nature of the data set: Isothermal titration calorimetry (ITC) of peptide binding to ASF1. To be noted: 20°C, 50mM Tris-HCl pH 7.5, protein 10µM, peptide 200µM, at least in duplicate. As for the experimental part: Binding of the peptides to ASF1 was then assessed by isothermal titration calorimetry (ITC; Figure 3, Table 1). […] Strikingly, the binding potency was similar in all three cases, ΔG=−7.3 to −8.0 kcal M ^−1, despite H3_118–135(St123–127)GCA adopting a more helical conformation and therefore presumably being more pre‐organised towards ASF1 recognition. Analyses of the thermodynamic determinants of binding reveal enthalpy–entropy compensation. […] In contrast, for the more helical peptide, H3_118–135(St123–127)GCA, the entropy of binding (TΔS=3.1 kcal M ^−1) was favourable, consistent with the anticipated effect of pre‐organisation; however, the enthalpy of binding (ΔH=−4.2 kcal M ^−1) was less favourable than for the less helical variants. […] Such an effect might arise because the less helical peptides H3_118–135 and H3_118–135(St120–124) form enthalpically favourable backbone hydrogen bonds upon a change in conformation to the helix, whereas the more pre‐organised helix H3_118–135(St123–127)GCA neither gains new hydrogen bonds nor undergoes an entropically costly change in conformation on binding ASF1. Alternatively, differential changes in the solvation of the peptides upon binding could account for such a difference in thermodynamic signature. Either way, the results underscore a limitation in correlating conformational stability against binding potency for the unconstrained (H3_118–135) and constrained (H3_118–135(St123–127)GCA) peptides; although the helical conformation is preferred for H3_118–135(St123–127)GCA, this can be considered as arising from an increase in energy (or destabilisation) of nonhelical conformations for this sequence as opposed to preorganisation of the wild‐type sequence. […]
(§1) Expression and Purification of ASF-1
(§2) Recombinant human ASF1 (ASF1A(1-156)) was purified as already described from expression in E. coli of a (His)6–GST –Tev site–Asf1 fusion protein using the pETM30 plasmid. Briefly, soluble (His)6-tagged GST fusion protein was purified on reduced glutathione (GSH) agarose beads (Sigma).
(§3) After cleavage with recombinant (His)6-TEV protease at room temperature overnight, the (His)6-GST tag and the protease were trapped in a Ni-NTA agarose column (Qiagen). The flow-through fraction containing ASF1 proteins was further purified by anion exchange chromatography using a Resource Q 6mL column (GE Healthcare). ASF1 was then concentrated using an Amicon device (Millipore) and the buffer was replaced with a 50mM Tris-HCl (pH7.5). Unlabled ASF1 used for ITC experiments was purified from pellets of bacteria grown in LB medium, and uniformly labelled ASF1 from bacteria gown in M9 minimal media supplemented with (15NH4)Cl (Eurisotop,0.5 g.l−1) as the sole nitrogen source.
(§4) (1 picture or pasted object on this page, not shown here)
Isothermal Titration Calorimetry
All IsoThermal Calorimetry (ITC) experiments were performed in a VP-ITC titration calorimeter (Microcal/Malvern) at 20°C, in a 50mM Tris-HCl pH 7.5 buffer. Protein and peptides concentrations were set to values 10µM and 200µM, respectively. Protein and peptide samples were prepared in the same buffer and degassed (ThermoVac, Malvern). After equilibrating the cell at […], the rotating syringe (310rpm) injected at intervals of 280s, 6µL aliquots of peptide solution into the Asf1 previously introduced in the sample cell until saturation was observed. Raw ITC data were processed with the Origin 7.0 Software (OriginLab, Malvern) using the One-Set of Sites fitting model. All ITC experiments were performed at least in duplicate. […]
(§5) Intact peptide content was determined relative to the t=0 time-point based on HPLC peak areas. Curves were fitted using an exponential decay function in Origin Pro 9.

Data set [2] in a line: Circular dichroism (CD), % helicity. The format is physicochemical. Conditions: 100 μM peptide in 40 mM sodium phosphate, pH 7.5, 293 K, scans in duplicate. As to the method: The helical character of all three peptides was investigated by using circular dichroism (CD) in both 40 mM phosphate buffer and trifluoroethanol (TFE). […] (Figure 2).
Circular Dichroism was performed on an Applied Photophysics ChiraScan Apparatus and Software.
For each scan, the following parameters were used: 180-260 nm range; point time 1 s; 1 nm per point; step = 1; bandwidth 4.3 nm; path length 1 mm; temperature 20 °C. Scans were done in duplicate.
Samples were dissolved in 4 0 mM sodium phosphate b uffer pH 7.50 at concentration of 100 μM.
Where θ = circular dichroism at a given wavelength, c = molar concentration, l = path length in cm, R = number of residues in the peptide sequence.
Figure ESI 1. Conformational analyses of histone H3 variant peptides by circular dichroism (CD) analyses (peptide concentration =100 μM, 40 mM sodium phosphate (or 40 mM sodium phosphate/ […]
as §1, §2, §3, §4

Data set [3] has as its system trypsin. The data set can be described thus: Proteolysis assay with trypsin. Type of data set: in vitro ADME. As to the method:
(§6) The proteolytic stability of the peptides was also investigated by using trypsin and proteinase K. The unconstrained H3_118–135 was cleaved within 14 minutes by both proteases (Figure 4, Table 2 and the Supporting Information), whereas the constrained peptides had increased stability depending on the position of the constraint. […]
(§7) The experiment wells contained aqueous buffer (50 mM Tris, pH 8, 100 mM NaCl, 170 µL) to which peptide solution (10 µL, 1 mM in H2O) and enyzme solution (20 µL 0.5 µg/ml trypsine or 20 µL 1 µg/ml proteinase K) was added. Final concentrations in the experiment wells were 50 µM peptide, 0.05 µg/ml trypsine or 0.1 µg/ml proteinase K. A control experiment was started at the same time without the enzymes. 10 µL aliqouts of the reaction were quenched at different time-points using 90 µL 2% TFA solution. Samples were measured using LC-ESI-MS on a Bruker Maxis impact mass spectrometer equipped with a Thermo Ultimate 3000 UPLC. All samples were run on an Acquity BEH C4 column using a gradient of 1-90% B (A: H2O + 0.1 % formic acid, B: ACN + 0.1 % formic acid) over 4 minutes.
as §5

The test system of data set [4] is proteinase K. Nature of the data set: Proteolysis assay with proteinase K. The format is in vitro ADME. Conditions: Tritirachium album (Parengyodontium album); fitted half-life; 50 mM Tris, pH 8, 100 mM NaCl, room temperature, 50 M peptide, 0.1 g/ml proteinase K (µ lost in print); LC-ESI-MS, intact peptide relative to t=0, exponential decay fit; read-out: Proteinase K t 1/2. As for the experimental part:
as §6, §7, §5

Data set [5] deals with T1, ASF1A(1–156). The data set can be described thus: NMR chemical-shift-perturbation study with 15N labelled ASF1A(1–156). To be noted: uniformly 15N labelled ASF1A(1–156), mapped on PDB 2IIJ. Type of data set: binding. As to the method:
In order to confirm the binding mode of the constrained peptides with ASF1, chemical‐shift‐perturbation studies were carried out for all three peptides (Figure S2) by using uniformly ^15N labelled ASF1A(1–156). The chemical‐shift variation was mapped onto the protein structure of ASF1A–H3 (PDB ID: 2IIJ). All three peptides induced the highest values of chemical‐shift variation and a “slow‐exchange” regime for the ASF1 residues defining the already well characterised H3 binding site (V45–E51, V90–I97, R108–Y111, V146–T147),37, 45 thus confirming the preservation of the specific binding mode for the constrained peptides.

The target of data set [6] is proteinase K (Parengyodontium album, UniProt P06873). Nature of the data set: Proteolysis assay with proteinase K. The format is in vitro ADME. To be noted: 50 mM Tris, pH 8, 100 mM NaCl, room temperature, LC-ESI-MS. As for the experimental part: as §6, §7, §5
Sequence of proteinase K (Parengyodontium album, UniProt P06873) (P06873 106-384, species assumed): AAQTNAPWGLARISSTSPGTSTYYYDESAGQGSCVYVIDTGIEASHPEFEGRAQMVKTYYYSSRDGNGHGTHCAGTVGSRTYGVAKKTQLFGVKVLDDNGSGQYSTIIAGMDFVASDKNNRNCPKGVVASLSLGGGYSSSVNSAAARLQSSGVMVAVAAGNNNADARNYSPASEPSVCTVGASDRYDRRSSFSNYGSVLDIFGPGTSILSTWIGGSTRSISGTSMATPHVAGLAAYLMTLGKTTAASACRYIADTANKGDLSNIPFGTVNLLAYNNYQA
Data set [7] has as its target T2, ASF1A(1–156) (UniProt Q9Y294 1-156, uniformly 15N labelled (in the chemical-shift-perturbation study only)).
T2 construct: ASF1A (anti-silencing function 1A), histone chaperone, conserved N-terminal domain, residues 1-156; The same construct limits as in PDB 2IIJ; also called anti-silencing function 1
Nature of the data set: ITC; H3 peptides with ASF1A(1–156); exothermic, fitted to a 1:1 binding isotherm; conditions not shown. To be noted: both partners purified.

Setting [8] is: trypsin, fitted half-life, 50 mM Tris, pH 8, 100 mM NaCl, room temperature, 50 M peptide, 0.05 g/ml trypsine (µ lost in print), LC-ESI-MS, intact peptide relative to t=0, exponential decay fit, read-out: Trypsin t 1/2.

T1 sequence (Q9Y294 1-156): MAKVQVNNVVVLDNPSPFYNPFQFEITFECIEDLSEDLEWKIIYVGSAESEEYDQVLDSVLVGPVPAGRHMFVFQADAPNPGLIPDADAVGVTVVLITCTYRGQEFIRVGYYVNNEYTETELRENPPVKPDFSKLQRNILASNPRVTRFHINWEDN
T2 sequence (Q9Y294 1-156): as above

Take `CC[C@H](C)[C@H](NC(=O)[C@H](CCCNC(=N)N)NC(=O)[C@H](CCCNC(=N)N)NC(=O)[C@H](C)NC(=O)[C@H](CC(C)C)NC(=O)[C@H](CCC(N)=O)NC(=O)[C@@H]1CCCC=CCCC[C@H](NC(=O)[C@H](C)NC(=O)CNC(C)=O)C(=O)NCC(=O)N[C@@H](CCCCN)C(=O)N[C@@H](CC(=O)O)C(=O)N1)C(=O)N[C@@H](CCCNC(=N)N)C(=O)NCC(=O)N[C@@H](CCC(=O)O)C(=O)N[C@@H](CCCNC(=N)N)C(=O)N[C@@H](C)C(N)=O` [H3_118–135(St120–124)] (Ac-GA[Nle(6-ylidene)]GKD[Nle(6-ylidene)]QLARRIRGERA-NH2; staple 3-7): the ΔG in data set [1] was −8.3±0.07 kcal M ^−1. In addition, in data set [2], the “% helicity” value came out at 20%. Moreover, the half-life at 50 µM stood at 14.9 ± 2.5 min in data set [3] (setting [8]) and 65.8 ± 15.7 min in data set [4]. Also, in data set [5], the “chemical-shift variation at the B domain binding site (S59–F72) of ASF1 (nonspecific binding)” value (shortened to “chemical-shift variation”) is “exhibited chemical‐shift variations”.
On to `CC[C@H](C)[C@H](NC(=O)[C@H](CCCNC(=N)N)NC(=O)[C@H](CCCNC(=N)N)NC(=O)[C@@H]1CCCC=CCCC[C@H](NC(=O)[C@H](CCCCN)NC(=O)CNC(=O)[C@H](CCSC)NC(=O)[C@H](C)NC(=O)CNC(C)=O)C(=O)N[C@@H]([C@@H](C)CC)C(=O)N[C@@H](CCC(N)=O)C(=O)N[C@@H](CC(C)C)C(=O)N1)C(=O)N[C@@H](CCCNC(=N)N)C(=O)NCC(=O)N[C@@H](CCC(=O)O)C(=O)N[C@@H](CCCNC(=N)N)C(=O)N[C@@H](C)C(=O)NCC(=O)N[C@@H](CS)C(=O)N[C@@H](C)C(N)=O` [H3_118–135(St123–127)GCA] (Ac-GAMGK[Nle(6-ylidene)]IQL[Nle(6-ylidene)]RRIRGERAGCA-NH2; staple 6-10), for which, in data set [1], the TΔS is 3.1 kcal M ^−1 and 3.1±0.2 kcal M ^−1; the ΔG is given as −7.3±0.05 kcal M ^−1; the ΔH is −4.2 kcal M ^−1 and −4.2±0.08 kcal M ^−1. Also, the “% helicity” value in data set [2] is given as 29%. Also, the half-life at 50 µM in data set [3] (setting [8]) amounted to 40.5 ± 16.9 min. Also, in data set [4], the half-life at 50 µM stood at 23.1 ± 2.6 min. Moreover, the “chemical-shift variation” value in data set [5] is “no chemical‐shift variation”.
In the case of Ac-GAMGKDIQLARRIRGERA-NH2 [H3_118–135], in data set [1], the TΔS was −6.4 to −6.7 kcal M ^−1 and −6.4±0.51 kcal M ^−1; the ΔG was −8.0±0.14 kcal M ^−1; the ΔH is −14.4 to −15.0 kcal M ^−1 and −14.4±0.37 kcal M ^−1. In addition, the “% helicity” value in data set [2] is reported as 15%. In data set [3] (isolated enzyme trypsin, pH 8), this molecule yielded a half-life at 50 µM of 13.3 ± 1.5 min. In addition, the “time within which peptide was cleaved by proteinase K” value in data set [6] is ≤ 14 min. For the same molecule, in data set [4], the half-life at 50 µM worked out at 12.2 ± 0.8 min. In addition, the “chemical-shift variation” value in data set [5] is given as “exhibited chemical‐shift variations”.

B1: H3_(118–135) (peptide, UniProt P68431 119-136, looked up)
peptide: TIMPKDIQLARRIRGERA
notes: histone H3, C-terminal helix peptide, residues 118-135; also called histone H3(118–135); unconstrained H3_(118–135); source: synthetic peptide (solid-phase peptide synthesis)
In the case of B1, in data set [7], the equilibrium dissociation constant (Kd) amounted to 1340 ± 330 nM, the dH was -14.4 ± 0.37 kcal/M and the “stoichiometry N” value amounted to 0.94 ± 0.04.
